Source: US7897565B2, “Compositions for HCV treatment” (priority 2004, dated 2011)
Non-standard residues stand in square brackets, D forms with d. Residues, ends and D or L forms follow the SMILES beside them. ξ: configuration not given here. ξNMeBmt = C/C=C/C[C@@H](C)[C@@H](O)C(NC)C(=O)O; NMeL = CN[C@@H](CC(C)C)C(=O)O; NMeV = CN[C@H](C(=O)O)C(C)C; NMeA = CN[C@@H](C)C(=O)O; Abu = CC[C@H](N)C(=O)O; Sar = CNCC(=O)O

Columns and labels:
[1] = system: HCV replicon cells clone A; assay: nine-day viral RNA reduction assay (quantitative RT-PCR); type: cell-based, hepatitis C virus
Protocol: Analysis of the effect of combination treatment, are examined using nine-day viral RNA reduction assays. HCV replicon cells clone A are treated with compounds in DMEM supplemented with 10% FBS and 0.2% DMSO for 3, 6, or 9 days, then the total intracellular RNA is extracted, and the level of HCV RNA is determined by real-time quantitative RT-PCR (Taqman) using HCV-specific primers and probe as described above. For each treatment, the quantity of HCV RNA is normalized against the amount of total RNA extracted, which is determined in a Quant-iT assay (Molecular Probe). The log reduction of HCV RNA is calculated by comparing the level of HCV RNA in compound-treated cells to that of untreated cells.

[2] = biological target: human recombinant cyclophilin (Homo sapiens, UniProt P62937); assay: competitive ELISA for binding to cyclophilin (Binding Ratio vs cyclosporin A); details: negative value = binding stronger than cyclosporin A
Protocol: A cyclosporin is considered as binding to cyclophilin if it binds to human recombinant cyclophilin at least one fifth as well as does cyclosporin A in the competitive ELISA test described by Quesniaux in Eur. J. Immunol. 1987 17:1359-1365. In this test, the cyclosporin to be tested is added during the incubation of cyclophilin with coated BSA-cyclosporin A and the concentration required to give a 50% inhibition of the control reaction without competitor is calculated (IC50). The results are expressed as the Binding Ratio (BR), which is the log to the base 10 of the ratio of the IC50 of the test compound and the IC50 in a simultaneous test of cyclosporin A itself.

[3] = system: HCV replicon cells clone A; type: cell-based, hepatitis C virus; details: 1 mg/ml G418
Protocol: HCV replicon cells clone A are treated with various concentrations of NIM811 and BILN2061 either alone or in combination in the presence of 1 mg/ml G418.

[4] = system: Balb/c spleen cells; assay: Mixed Lymphocyte Reaction (MLR), activity relative to cyclosporin A; type: cell-based, mice
Description: Cyclosporins which bind strongly to cyclophilin but are not immunosuppressive have been identified. A cyclosporin is considered to be non-immunosuppressive when it has an activity in the Mixed Lymphocyte Reaction (MLR) of no more than 5%, preferably no more than 2%, that of cyclosporin A. The Mixed Lymphocyte Reaction is described by T. Meo in “Immunological Methods”, L. Lefkovits and B. Peris, Eds., Academic Press, N.Y. pp. 227-239 (1979). Spleen cells (0.5×10^6) from Balb/c mice (female, 8˜10 weeks) are co-incubated for 5 days with 0.5×10^6 irradiated (2000 rads) or mitomycin C treated spleen cells from CBA mice (female, 8˜10 weeks). The irradiated allogeneic cells induce a proliferative response in the Balb/c spleen cells which can be measured by labeled precursor incorporation into the DNA. […] The IC50 found for the test compound in the MLR is compared with that found for cyclosporin A in a parallel experiment. In addition, non-immunosuppressive cyclosporins lack the capacity of inhibiting CN and the downstream NF-AT pathway.

Chain of human recombinant cyclophilin (P62937 whole entry): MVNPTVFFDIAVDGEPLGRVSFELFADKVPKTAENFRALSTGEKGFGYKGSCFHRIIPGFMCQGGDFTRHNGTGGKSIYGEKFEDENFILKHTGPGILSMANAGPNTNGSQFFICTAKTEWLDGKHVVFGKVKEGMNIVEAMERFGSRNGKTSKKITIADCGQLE

## IFN-α
[1]; 5 U/ml IFN-α alone, 9 days
  log reduction of HCV RNA: 1.2 log

## [Ethyl-Val]^4-Ciclosporin
[2]
  BR (Binding Ratio): log to the base 10 of the ratio of the IC50 of the test compound and the IC50 of cyclosporin A: 0

## [Ethyl-Ile]^4-Ciclosporin
[2]
  BR (Binding Ratio): log to the base 10 of the ratio of the IC50 of the test compound and the IC50 of cyclosporin A: 0.1

## COc1ccc2c(O[C@@H]3C[C@H]4C(=O)N[C@]5(C(=O)O)C[C@H]5/C=C\CCCCC[C@H](NC(=O)OC5CCCC5)C(=O)N4C3)cc(-c3csc(NC(C)C)n3)nc2c1 [BILN2061]
[3]
  treatment time after which resistant colonies start to form: 2 weeks

## C/C=C/C[C@@H](C)[C@@H](O)C1C(=O)N[C@@H](CC)C(=O)N(C)CC(=O)N(C)[C@@H](CC(C)C)C(=O)N[C@@H](C(C)C)C(=O)N(C)[C@@H](C)C(=O)N[C@@H](C)C(=O)N[C@H](C)C(=O)N(C)[C@@H](CC(C)C)C(=O)N(C)[C@@H](CC(C)C)C(=O)N(C)[C@@H](C(C)C)C(=O)N1C (stereo partly shown) [[MeAla]^6-Ciclosporin] (cyclo(A[dA][NMeL][NMeL][NMeV][ξNMeBmt][Abu][Sar][NMeL]V[NMeA]))
[2]
  BR (Binding Ratio): log to the base 10 of the ratio of the IC50 of the test compound and the IC50 of cyclosporin A: −0.4
[4]
  IR (Immunosuppressive Ratio), percentage of the activity relative to Cyclosporin A: 3.2%

## C/C=C/C[C@@H](C)[C@@H](O)C1C(=O)N[C@@H](CC)C(=O)N(C)CC(=O)N(C)[C@@H](CC(C)C)C(=O)N[C@@H](C(C)C)C(=O)N(C)[C@@H](CC(C)C)C(=O)N[C@@H](C)C(=O)N[C@H](C)C(=O)N(C)[C@@H](CC(C)(C)O)C(=O)N(C)[C@@H](CC(C)C)C(=O)N(C)[C@@H](C(C)C)C(=O)N1C (stereo partly shown) [[γ-hydroxy-MeLeu]^9-Ciclosporin]
[2]
  BR (Binding Ratio): log to the base 10 of the ratio of the IC50 of the test compound and the IC50 of cyclosporin A: 0.15
[4]
  IR (Immunosuppressive Ratio), percentage of the activity relative to Cyclosporin A: 2.9%

## C/C=C/C[C@@H](C)[C@@H](O)[C@H]1C(=O)N[C@@H](CC)C(=O)N(C)CC(=O)N(C)[C@@H]([C@@H](C)CC)C(=O)N[C@@H](C(C)C)C(=O)N(C)[C@@H](CC(C)C)C(=O)N[C@@H](C)C(=O)N[C@H](C)C(=O)N(C)[C@@H](CC(C)C)C(=O)N(C)[C@@H](CC(C)C)C(=O)N(C)[C@@H](C(C)C)C(=O)N1C [NIM811, [Melle]^4-Ciclosporin]
[2]
  BR (Binding Ratio): log to the base 10 of the ratio of the IC50 of the test compound and the IC50 of cyclosporin A: −0.2
[1]; 0.5 μM NIM811 alone, 9 days of treatment
  log reduction of HCV RNA: 1.2 log
[1]; 1 μM NIM811 alone, 9 days of treatment
  log reduction of HCV RNA: greater than 3 log

## C/C=C/C[C@@H](C)[C@@H](O)C1C(=O)N[C@@H](CC)C(=O)N(C)CC(=O)N(C)[C@@H](CC(C)C)C(=O)N(C)[C@@H](C(C)C)C(=O)N(C)[C@@H](CC(C)C)C(=O)N[C@@H](C)C(=O)N[C@H](C)C(=O)N(C)[C@@H](CC(C)C)C(=O)N(C)[C@@H](CC(C)C)C(=O)N(C)[C@@H](C(C)C)C(=O)N1C (stereo partly shown) [[MeVal]^5-Ciclosporin]
[2]
  BR (Binding Ratio): log to the base 10 of the ratio of the IC50 of the test compound and the IC50 of cyclosporin A: 0.4
[4]
  IR (Immunosuppressive Ratio), percentage of the activity relative to Cyclosporin A: 5.3%

## CC[C@@H]1NC(=O)C([C@H](O)[C@H](C)C/C=C/CO)N(C)C(=O)[C@H](C(C)C)N(C)C(=O)[C@H](CC(C)C)N(C)C(=O)[C@H](CC(C)C)N(C)C(=O)[C@@H](C)NC(=O)[C@H](C)NC(=O)[C@H](CC(C)C)N(C)C(=O)[C@H](C(C)C)NC(=O)[C@H](CC(C)C)N(C)C(=O)CN(C)C1=O (stereo partly shown) [[8′-hydroxy-MeBmt]^5-Ciclosporin]
[2]
  BR (Binding Ratio): log to the base 10 of the ratio of the IC50 of the test compound and the IC50 of cyclosporin A: 0.35
[4]
  IR (Immunosuppressive Ratio), percentage of the activity relative to Cyclosporin A: 1.8%

## CC=CCC(C)C(O)C1C(=O)NC(CC)C(=O)N(C)CC(=O)N(C)C(C(C)C)C(=O)NC(C(C)C)C(=O)N(C)C(CC(C)C)C(=O)NC(C)C(=O)NC(C)C(=O)N(C)C(CC(C)C)C(=O)N(C)C(CC(C)C)C(=O)N(C)C(C(C)C)C(=O)N1C (stereo not shown) [[MeVal]^4-Ciclosporin]
[2]
  BR (Binding Ratio): log to the base 10 of the ratio of the IC50 of the test compound and the IC50 of cyclosporin A: 0.1
